Structures are written as SMILES.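 Where inhibition never reached the appropriate level, the endpoint shown equals the highest concentration tested. Otherwise, values were interpolated linearly from a five-concentration, 48-hour dose response in 96-well plates. Here, GI50 denotes the concentration required for 50% inhibition of growth. TGI: total growth inhibition.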

The values below come from PubChem BioAssay (NCI).

Common to all, as to assay: NCI tumour cell line growth inhibition, 48 h
The subject of experiment [1] is A549 NSCLC.
The test system of experiment [2] is ACHN renal.
Experiment [3] deals with HT29 colon.
The test system of experiment [4] is LOX IMVI melanoma.
Experiment [5] relates to MALME-3M melanoma.
For experiment [6], the system named is SF-268 CNS.
Experiment [7] relates to SK-MEL-5 melanoma.
The subject of experiment [8] is SW-620 colon.
The test system of experiment [9] is UACC-257 melanoma.
Experiment [10] has as its system UO-31 renal.

For `COc1cc(O)c2c(c1)C(=O)c1cc(C)cc(O)c1C2=O`, the TGI in experiment [1], in experiment [2], in experiment [3], in experiment [4], in [5] and in experiment [6] was > 100 µM in each case. In addition, the TGI in experiment [7], in experiment [8], in experiment [9] and in experiment [10] was > 100 µM each time.

Consider `Cn1c(Sc2ccc(-c3cccnc3)n2C)ccc1-c1cccnc1`, for which the TGI in experiment [1] turned out to be 80.9 µM; in experiment [2], 44.9 µM; in experiment [3] it was 55.1 µM; in experiment [4] it was 15.8 µM; in experiment [5], 23.3 µM; in experiment [6] it was 23.7 µM. For the same compound, the TGI was determined as 30.4 µM in experiment [7], 23.6 µM in experiment [8], 29.1 µM in experiment [9] and 33.4 µM in [10].

For the compound `Cc1cc(=O)oc2c1cc(OCC(=O)OCCN1CCCCC1)c1occ(C)c12`, the TGI in experiment [1], in experiment [2], in [3], in experiment [4], in [5] and in [7] was > 100 µM throughout. Moreover, the TGI in experiment [8], in experiment [9] and in experiment [10] was > 100 µM each time.

As to `NC(=O)Nc1cc(O)ccc1N=Nc1ccc(S(=O)(=O)Nc2ccccn2)cc1`, the TGI in experiment [1], in [2], in experiment [3], in [4], in experiment [5] and in experiment [6] was > 100 µM throughout. Besides, the TGI in experiment [7], in experiment [8], in experiment [9] and in experiment [10] was > 100 µM throughout.

Regarding `CC(CO)(CO)Nc1ncnc2ccccc12`, the TGI in [1], in [2], in experiment [3], in experiment [4], in [5] and in experiment [6] was > 100 µM in each case. Moreover, the TGI in experiment [7], in experiment [8], in [9] and in [10] was > 100 µM each time.

`CCOC(=O)NC`: the TGI in experiment [1], in experiment [2], in [3], in [4], in experiment [5] and in experiment [6] was > 100 µM throughout. Besides, the TGI in [7], in experiment [8], in experiment [9] and in [10] was > 100 µM each time.

Turning to `Nc1nnc(N)n1NC(=O)C(=O)Nc1ccc([N+](=O)[O-])cc1`, the TGI in experiment [1], in [2], in experiment [3], in experiment [4], in [5] and in experiment [6] was > 100 µM in each case. In addition, the TGI in experiment [7], in experiment [8], in [9] and in experiment [10] was > 100 µM throughout.

In the case of `c1ccc2sc(SCN(C3CCCCC3)C3CCCCC3)nc2c1`, the TGI in experiment [1], in experiment [2], in experiment [3], in experiment [4], in experiment [5] and in experiment [6] was > 100 µM throughout. Further, the TGI in [7], in experiment [8], in [9] and in experiment [10] was > 100 µM throughout.

On to `O=C(O)C1=NNC(C(=O)O)=NN1`, for which the TGI in [1], in [2], in experiment [3], in experiment [4], in experiment [5] and in experiment [6] was > 100 µM throughout. Further, the TGI in experiment [7], in [8], in experiment [9] and in experiment [10] was > 100 µM throughout.

Take `CCCCCCCCCCCCCCCCOCC(COP(=O)([O-])OCC[n+]1ccc(N(C)C)cc1)OCC` (stereo not given): the TGI in experiment [1] was 30.4 µM; in experiment [2], 30.9 µM; in [3], 28 µM; in experiment [4], 25.5 µM; in experiment [5] it was 33 µM; in experiment [6], 25.7 µM. Further, the TGI in experiment [7] is 31.6 µM; in experiment [8], 37.2 µM; in experiment [10], 29.4 µM.

For `COc1c(Cl)cc(S(=O)O)cc1Cl`, the TGI in experiment [2], in experiment [3], in experiment [4], in experiment [5], in [6] and in experiment [9] was > 100 µM each time. For the same compound, in experiment [10], the TGI was > 100 µM.

Consider `Fc1ccc(-c2nnc3sc(COc4ccccc4Cl)nn23)cc1Cl`, for which the GI50 in [1] was 41.1 µM; in [2], 32.7 µM; in experiment [3], 48.1 µM; in [4], 16.5 µM; in experiment [5], 70.9 µM; in experiment [6], 41.9 µM. The GI50 in experiment [7] was 23.4 µM; in [8] it was 30.2 µM; in experiment [9] it was 46.2 µM; in experiment [10] it was 32.7 µM. In addition, the TGI was > 100 µM in experiment [1]; > 100 µM in experiment [2]; > 100 µM in [3]; 31.6 µM in experiment [4]; > 100 µM in experiment [5]; > 100 µM in experiment [6]. Besides, the TGI in experiment [7] was 69.1 µM; in experiment [8], 74.5 µM; in [9] it was > 100 µM; in experiment [10], > 100 µM.

For the compound `O=C1c2ccccc2C(=O)c2c1ccc(C(=O)O)c2-c1ccc2ccccc2c1`, the TGI in experiment [1] was > 100 µM; in [2], > 100 µM; in experiment [3] it was > 100 µM; in [4], 41.6 µM; in experiment [5] it was 70.7 µM; in [6], 98.1 µM. For the same compound, the TGI in [7] is 39.4 µM; in experiment [8], 89.5 µM; in experiment [9], > 100 µM; in experiment [10], 83.3 µM.
